In patent US12508275B2, “Neomycin based compounds, and pharmaceutical use thereof” (UNIVERSITÉ COTE D'AZUR, priority 2019, dated 2025):

Legend:
GB5 cells [1] = experiment: TMZ assay: GSC sensitivity to Temozolomide (XTT); assay type: cell-based, human; conditions: three days; for increase of TMZ sensitivity: GB5, TMZ 400 uM plus compound at 10 uM; for increase of TMZ sensitivity, maximal effect: GB5, TMZ 400 uM plus compound at 50 uM
Method: FIG. 5: Sensitivity to TMZ was assessed by comparing the percentage of dead cells between TMZ treated GB5 and TMZ treated GB5 in combination with Compound 9a. GB5 cells have been treated with 400 uM TMZ alone or in combination with growing concentrations of Compounds 9a-b and 18b. The results are the meaning of at least two separate experiments.
IV—TMZ assay: TG6 and GB5 were seeded at 2000 cells/well in 96 wells plate in NS34+ or treated with medium containing 400 uM of TMZ alone or mixed with 10, 25 and 50 uM of Compounds 9a-b and 18a-b. Cultures were incubated 4 days and the cell viability has been evaluated by XTT assays and a count of living and dead cells with trypan blue staining.
Temozolomide is the chemotherapy of reference for GBM treatment. In order to assess whether the compounds might sensitize GSC to TMZ, TMZ (400 uM) pretreated GB5 cells were incubated with 10, 25 and 50 uM of Compounds 9a-b and 18b. Three days later the experiment is stop and the cells were subjected to an XTT assays. […] Cell toxicity was confirmed by trypan blue staining.

[2] = system: Patient derived GSC (GB5); experiment: Effect of compound treatment on GSC phenotype (adhesion, morphology), GB5; assay type: cell-based, human; conditions: three days
Source text: FIG. 1: phase contrast images of GB5 morphology untreated (CTL DMSO) or treated with the indicated compound (“Cpd” denotes compound) at the indicated concentration. Control cells grow as non-adherent spheroids composed of numerous GSC. When differentiated the cells become adherent and spread on the culture dish.
B—Cell culture: Patient-derived cells GB5 were isolated from surgical resection of human primary GBM provided by the department of neurosurgery of the University Hospital of Nice. TG6 (patient-derived cell from primary GBM) and HNNSC25 (Human Normal Neural Stem Cells) have been provided by Dr Hervé Chneiweiss, University of Pierre and Marie Curie, Paris. The resulting primary cultures (GB5, TG6, HNNSC25) were grown in NS34+ medium containing EGF and bFGF (DMEM-F12 1/1 ratio, 10 mM glutamine, 10 mM Hepes, 0.025% Sodium bicarbonate, N2, G5, and B27).
Patient derived GSC (GB5) were treated with growing concentration of Compounds 9a-b and 18a-b (10 to 100 uM) during three days). […] Similar results have been obtained with TG6.

GB5 = experiment: XTT toxicity assay on GSC (GB5); assay type: cell-based
Method: FIG. 4: Determination of compound toxicity on GSC and normal human cells. (A) GB5 were incubated with growing concentration of Compounds 9a-b and 18a. (B) human normal neural stem cell (NNSC), human normal kidney cells (NHEK), human normal hepatocytes (HEPRG) and (C) human endothelial cells (HUVEC) were treated with growing concentration of Compound 9a. 7 days later, the cells were subjected to an XTT assays as described in the method section. The results are the meaning of at least two separate experiments. Cell death was confirmed by trypan blue staining (not shown).
II—XTT assay: TG6 and GB5 were seeded at 2000 cells/well in 96 wells plate in NS34+ alone or containing 10, 20, 25, 50 and 100 uM of Compounds 9a-b and 18a-b. Cultures were incubated 4 days and the cell proliferation was evaluated as indicated by the manufacturer.
V—Toxicity tests: NNSC, GB5, TG6, HEK293, and HepaRG, HUVEC were seeded at 2000 cells/well in 96 wells plate in their respective culture mediums alone or containing growing concentration from 10 to 500 uM of Compounds 9a-b. Cultures were incubated 4 days and the cellular toxicity has been evaluated by XTT assays. Cell viability has been also assessed by counting living and dead cells with trypan blue staining.
XTT assays allows, through cell metabolism measurement, to determine a cytotoxic/cytostatic effects. Compounds 9a-b and 18a were tested for their eventual toxicity by XTT assays as described in the material and method section. At the working concentrations 10 to 25 uM, the compounds are not toxic for GSC (FIG. 4A). […] Compound 9a toxicity was further tested on normal neural stem cells (NNSC), human kidney (NHEK), human hepatocytes (HEPRG) and human endothelial cells (HUVEC). The compound is not toxic on NNSC, NHEK, HEPRG and HUVEC cells when used between 10 to 50 uM. At 100 uM and above, Compound 9a was toxic (FIG. 4).

GB5 cells [3] = experiment: Clonal expansion (clonal proliferation) of GB5; assay type: cell-based, human; conditions: GB5, spheroids counted after two and three weeks
Method: (§1) FIG. 2: Compounds 9a-b and 18a-b effect on stemness marker expression, clonal expansion and mitosis in GB5 cells. (A) NESTIN expression was assessed by immunofluorescence in GB5 treated with increasing amount of Compounds 9a-b and 18a. The number of NESTIN positive cells was counted for each treatment and express as percentage of the control (100%). The results are the meaning of at least two separate experiments. […] (C) Clonal expansion analysis was performed with GB5 cells as described in the material and method section. Two and three weeks later, the number of spheroids is counted and reported as percentage of the initial number of cells in the well. The results are the meaning of a minimum of two separate experiments. (D) The number of mitosis in the culture was determined by the detection of the number of cells positive for histone H3 phosphorylated on ser-10 (H3-ser10). H3-ser10 expression was assessed by immunofluorescence in GB5 treated with increasing amount of Compounds 9a-b and 18a. The number of positive cells was counted for each treatment and express as percentage of the control (100%). The results are the meaning of at least two separate experiments.
Clonal proliferation: TG6 and GB5 were seeded at 10 cells/well in 96 wells plate in NS34+ medium alone or containing growing concentration of Compounds 9a-b and 18a-b. Immediately after seeding, the real number of cells in the well was determined by direct count. Two and three weeks later, the resulting number of spheroids in each well was evaluated by a direct count. The % of clonal efficiency was calculated in dividing […].
(§2) It was further investigated the effects of selected compounds on GSC clonal expansion as well as their capacity of mitosis (FIGS. 2B and C). Compounds 9a-b and 18a treatment altered GSC clonal expansion and mitosis. The most efficient inhibition of clonal expansion was provided by Compound 9a treatment (IC50<10 uM) while both Compounds 9a-b were the most efficient for mitosis inhibition (IC50<10 uM) (FIGS. 2C and D).

GB5 cells [4] = experiment: Mitosis: cells positive for histone H3 phosphorylated on ser-10, GB5; assay type: cell-based, human; conditions: GB5, H3-ser10 positive cells
Method: as §1
(§3) III—Immunofluorescence assay: TG6 and GB5 were seeded at 2000 cells/well in 24 wells plate in NS34+ alone or containing 5, 7.5, 10, 12.5, 15, 20 and 25 uM of Compounds 9a-b and 18a-b. Cultures were incubated 4 days and the cells were fixed with 4% paraformaldehyde for 10 min at room temperature then washed with PBS. Cells were then incubated with ammonium chloride at 20 mM 5 min at room temperature and washed 5 times with PBS. Blocking and hybridization were realized in PBS containing 10% FCS and 0.1% Triton X100. Anti-Nestin and anti-H3Phospho serine 10 antibodies were incubated 2 hours at room temperature then washed with PBS. Fluorescence coupled secondary antibodies and Hoechst 33342 nuclei counterstaining reagent were hybridized one hour at room temperature. Cells were mounted with anti-fading agent then imaged, counted and quantified using fluorescent microscopy (TiE Nikon) and NiS software (Nikon).
as §2

NESTIN expression in GB5 = experiment: NESTIN expression by immunofluorescence in GB5; assay type: cell-based, human; conditions: GB5, seven days, growing concentrations
Method: as §1, §3
Patient derived GSC (GB5) have been treated during seven days, with growing concentrations of compounds that have been capable of inducing changes of GSC morphology. To assess the consequence on stemness maintenance, we observed, by immunofluorescence, the expression of stemness and progenitor cells such as the NESTIN protein. […] The strongest effect has been obtained with Compounds 9a treatment (IC50=10 uM).

Row | SMILES | increase of TMZ sensitivity (GB5 cells [1]) | increase of TMZ sensitivity, maximal effect (GB5 cells [1]) | adhesion and changes in GSC morphology ([2]; GB5, 25 uM) | toxicity for GSC (XTT) (GB5; GB5, 50 uM and higher) | toxicity for GSC (XTT) (GB5; GB5, 10 to 25 uM) | adhesion and changes in GSC morphology ([2]; GB5, 10 uM) | GSC clonal expansion (GB5 cells [3]) | GSC mitosis (GB5 cells [4]) | IC50 (GB5 cells [4]; Homo sapiens, read-out: mitosis inhibition IC50) | NESTIN expression (NESTIN expression in GB5)
1 | NCCCNC(=O)c1csc(-c2csc(CCNC(=O)CCC(=O)NCC3OC(OC4C(O)C(N)CC(N)C4OC4OC(CN)C(O)C(O)C4N)C(O)C3OC3OC(CN)C(O)C(O)C3N)n2)n1 (stereo not drawn) [Compound 18b, 4-((2-(4-((3-aminopropyl)carbamoyl)-[2,4′-bithiazol]-2′-yl)ethyl)amino)-4-oxobutanoic-amido-neomycin] | 1.7 fold | 3 fold | induced adhesion and changes in GSC morphology |  |  |  |  |  |  | 
2 | NCC1OC(OC2C(Cn3cc(CCC(=O)NCCc4nc(-c5nc(C(=O)NCCCCN=C(N)N)cs5)cs4)nn3)OC(OC3C(O)C(N)CC(N)C3OC3OC(CN)C(O)C(O)C3N)C2O)C(N)C(O)C1O (stereo not drawn) [Compound 9b, N-(4-((Diaminomethylene)amino)butyl)-2′-(2-(3-(1-methyl-1H-1,2,3-triazol-4-yl)propanamido)ethyl)-[2,4′-bithiazole]-4-carboxamide-neomycin] | 1.8 fold | 2.8 fold |  | relative toxicity | not toxic | induced adhesion and changes in GSC morphology | altered | altered | < 10 µM | drop in NESTIN expression
3 | NCCCCNCCCNC(=O)c1csc(-c2csc(CCNC(=O)CCC(=O)NCC3OC(OC4C(O)C(N)CC(N)C4OC4OC(CN)C(O)C(O)C4N)C(O)C3OC3OC(CN)C(O)C(O)C3N)n2)n1 (stereo not drawn) [Compound 18a, 4-((2-(4-((3-((4-aminobutyl)amino)propyl)carbamoyl)-[2,4′-bithiazol]-2′-yl)ethyl)amino)-4-oxobutanoic-amido-neomycin] |  |  |  | relative toxicity | not toxic | induced adhesion and changes in GSC morphology | altered | altered |  | drop in NESTIN expression
